Experimental data taken from patent US20200368262A1, “Use of Timosaponin Enzymatically Transformed Product in Preparation of Drugs for Inhibiting Skin Superficial Fungi” (Shanghai University of Traditional Chinese Medicine, priority 2019, published 2020).
Converted amounts (≈) assume the structure as drawn.

How the values were obtained:
Assay in all cases: Trace liquid-based dilution MIC
Format in all cases: cell-based
C. albicans SC5314 = settings: Candida albicans, MIC80 (OD 630 nm reduced by 80% or more), 35° C., 24 hours, read-out: In vitro Bacteriostatic Activity (MIC) C. albicans SC5314
Excerpt: (§1) Spherical bacteria such as cryptococcus neoformans and candida albicans were taken, and activated with YEPD culture solution, and then the concentration of the bacteria solution was adjusted with RPM11640 culture solution to 1×10^3˜5 ×10^3 CFU/mL.
(§2) In the present experiment, the minimum inhibitory concentrations of the ethanol extract of rhizoma anemarrhenae and the timosaponin enzymatically transformed product against five common pathogenic fungi were detected by through a trace liquid-based dilution method recommended by the Clinical and Laboratory Standards Institute and the Chinese pharmacopoeia. Fluconazole was used as a positive control drug.
(§3) A specific experimental method is as follows: candida albicans, cryptococcus neoformans, trichophyton rubrum, trichophyton mentagrophytes, and microsporum gypseum were inoculated to a 96-well plate, respectively. The drug with different concentrations was added to the culture, wherein final concentrations of the drug were 64 mg/L, 32 mg/L, 16 mg/L, 8 mg/L, 4 mg/L, 2 mg/L, 1 mg/L, and 0.5 mg/L, respectively. Fungi treated without drug was used as positive control. The candida albicans was cultured at 35° C. for 24 hours while the cryptococcus neoformans was cultured at 35° C. for 72 hours and the trichophyton rubrum, the trichophyton mentagrophytes, and the microsporum gypseum were cultured at 30° C. for 7 days. The OD value of each well under the wavelength of 630 nm was measured using an microplate reader. The lowest drug concentration with an OD value reduced by 80% or more compared with the positive control wells was considered as MIC8o, namely the drug concentration inducing 80% inhibition against fungus growth was inhibited by 80%. When the MIC80 value of the drug was higher than the maximum concentration of 64 mg/L, “>64 mg/L” was recorded.

C. albicans Y0109 = settings: Candida albicans, MIC80 (OD 630 nm reduced by 80% or more), 35° C., 24 hours, read-out: In vitro Bacteriostatic Activity (MIC) C. albicans Y0109
Excerpt: as §1, §2, §3

[1] = test system: Cryptococcus neoformans 32609; settings: MIC80 (OD 630 nm reduced by 80% or more), 35° C., 72 hours, read-out: In vitro Bacteriostatic Activity (MIC) Cryptococcus neoformans 32609
Excerpt: as §1, §2, §3

Microsporum gypseum mzc = settings: MIC80 (OD 630 nm reduced by 80% or more), 30° C., 7 days; for MIC: Nannizzia gypsea, 168 h, read-out: In vitro Bacteriostatic Activity (MIC) Microsporum gypseum mzc
Excerpt: (§4) Trichophyton rubrum, microsporum gypseum, and trichophyton mentagrophytes were activated with a Sabouraud glucose agar culture medium, and the concentration of spores was adjusted with an RPM11640 culture solution to 1×10^35×10^3 CFU/mL.
as §2, §3

Trichophyton rubrum tia = settings: MIC80 (OD 630 nm reduced by 80% or more), 30° C., 7 days; for MIC: Trichophyton rubrum, 168 h, read-out: In vitro Bacteriostatic Activity (MIC) Trichophyton rubrum tia
Excerpt: as §4, §2, §3

[2] = test system: trichophyton mentagrophytes t5a; settings: MIC80 (OD 630 nm reduced by 80% or more), 30° C., 7 days; for MIC: Trichophyton mentagrophytes, T5A, 168 h, read-out: In vitro Bacteriostatic Activity (MIC) trichophyton mentagrophytes t5a
Excerpt: as §4, §2, §3

MIC (C. albicans SC5314) [µg/mL]	MIC (C. albicans Y0109) [µg/mL]	MIC [1] [µg/mL]	MIC (Microsporum gypseum mzc) [µg/mL]	MIC (Trichophyton rubrum tia) [µg/mL]	MIC [2] [µg/mL]	SMILES	In vitro Bacteriostatic Activity (MIC) Microsporum gypseum mzc (Microsporum gypseum mzc; listed as timosaponin Alll) [mg/L]	In vitro Bacteriostatic Activity (MIC) Trichophyton rubrum tia (Trichophyton rubrum tia; listed as timosaponin Alll) [mg/L]	In vitro Bacteriostatic Activity (MIC) trichophyton mentagrophytes t5a ([2]; listed as timosaponin Alll) [mg/L]
0.5 (≈ 0.713 µM)	1 (≈ 1.43 µM)	0.25 (≈ 0.357 µM)	0.25 (≈ 0.357 µM)	2 (≈ 2.85 µM)	0.25 (≈ 0.357 µM)	CC[C@@H]([C@H](C)O)n1ncn(-c2ccc(N3CCN(c4ccc(OC[C@@H]5CO[C@@](Cn6cncn6)(c6ccc(F)cc6F)C5)cc4)CC3)cc2)c1=O [posaconazole]	–	–	–
0.5 (≈ 1.63 µM)	1 (≈ 3.27 µM)	1 (≈ 3.27 µM)	8 (≈ 26.1 µM)	2 (≈ 6.53 µM)	32 (≈ 104 µM)	OC(Cn1cncn1)(Cn1cncn1)c1ccc(F)cc1F [fluconazole]	–	–	–

SMILES	MIC (C. albicans SC5314) [µg/mL]	MIC (C. albicans Y0109) [µg/mL]	MIC [1] [µg/mL]	MIC (Microsporum gypseum mzc) [µg/mL]	MIC (Trichophyton rubrum tia) [µg/mL]	MIC [2] [µg/mL]	In vitro Bacteriostatic Activity (MIC) Microsporum gypseum mzc (Microsporum gypseum mzc; listed as timosaponin Alll) [mg/L]	In vitro Bacteriostatic Activity (MIC) Trichophyton rubrum tia (Trichophyton rubrum tia; listed as timosaponin Alll) [mg/L]	In vitro Bacteriostatic Activity (MIC) trichophyton mentagrophytes t5a ([2]; listed as timosaponin Alll) [mg/L]
C[C@H]1CC[C@@]2(OC1)O[C@H]1C[C@H]3[C@@H]4CC[C@@H]5C[C@@H](O[C@@H]6O[C@H](CO)[C@H](O)[C@H](O)[C@H]6O[C@@H]6O[C@H](CO)[C@@H](O)[C@H](O)[C@H]6O)CC[C@]5(C)[C@H]4CC[C@]3(C)[C@H]1[C@@H]2C [timosaponin AIII]	4 (≈ 5.4 µM)	4 (≈ 5.4 µM)	4 (≈ 5.4 µM)	4 (≈ 5.4 µM)	4 (≈ 5.4 µM)	4 (≈ 5.4 µM)	2	2	2
